Assay results from ChEMBL document CHEMBL1139489, “Design and NMR characterization of active analogues of compstatin containing non-natural amino acids” (J Med Chem, 2005).

Target: Complement C3 (Homo sapiens, UniProt P01024)
Assay: Inhibitory concentration for human complement component C3 activation

Chain of Complement C3 (P01024 23-667 limits assumed): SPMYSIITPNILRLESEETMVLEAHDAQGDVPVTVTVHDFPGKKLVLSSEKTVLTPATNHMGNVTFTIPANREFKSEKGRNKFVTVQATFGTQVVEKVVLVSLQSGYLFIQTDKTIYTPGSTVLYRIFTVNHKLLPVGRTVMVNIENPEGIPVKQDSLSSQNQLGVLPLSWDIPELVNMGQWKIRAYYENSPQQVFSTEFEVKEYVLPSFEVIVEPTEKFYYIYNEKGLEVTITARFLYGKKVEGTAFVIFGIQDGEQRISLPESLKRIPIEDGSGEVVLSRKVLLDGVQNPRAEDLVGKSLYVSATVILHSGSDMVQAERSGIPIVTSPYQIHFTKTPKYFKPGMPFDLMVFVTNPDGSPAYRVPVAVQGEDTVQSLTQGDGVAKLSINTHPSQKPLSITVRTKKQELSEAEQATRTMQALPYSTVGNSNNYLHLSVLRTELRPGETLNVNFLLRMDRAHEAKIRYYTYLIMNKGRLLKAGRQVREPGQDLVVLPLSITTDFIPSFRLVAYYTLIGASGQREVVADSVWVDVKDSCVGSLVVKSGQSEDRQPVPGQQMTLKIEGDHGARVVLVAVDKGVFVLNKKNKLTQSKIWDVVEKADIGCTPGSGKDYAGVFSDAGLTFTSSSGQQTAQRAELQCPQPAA
Chain of Complement C3 (P01024 672-1663 limits assumed): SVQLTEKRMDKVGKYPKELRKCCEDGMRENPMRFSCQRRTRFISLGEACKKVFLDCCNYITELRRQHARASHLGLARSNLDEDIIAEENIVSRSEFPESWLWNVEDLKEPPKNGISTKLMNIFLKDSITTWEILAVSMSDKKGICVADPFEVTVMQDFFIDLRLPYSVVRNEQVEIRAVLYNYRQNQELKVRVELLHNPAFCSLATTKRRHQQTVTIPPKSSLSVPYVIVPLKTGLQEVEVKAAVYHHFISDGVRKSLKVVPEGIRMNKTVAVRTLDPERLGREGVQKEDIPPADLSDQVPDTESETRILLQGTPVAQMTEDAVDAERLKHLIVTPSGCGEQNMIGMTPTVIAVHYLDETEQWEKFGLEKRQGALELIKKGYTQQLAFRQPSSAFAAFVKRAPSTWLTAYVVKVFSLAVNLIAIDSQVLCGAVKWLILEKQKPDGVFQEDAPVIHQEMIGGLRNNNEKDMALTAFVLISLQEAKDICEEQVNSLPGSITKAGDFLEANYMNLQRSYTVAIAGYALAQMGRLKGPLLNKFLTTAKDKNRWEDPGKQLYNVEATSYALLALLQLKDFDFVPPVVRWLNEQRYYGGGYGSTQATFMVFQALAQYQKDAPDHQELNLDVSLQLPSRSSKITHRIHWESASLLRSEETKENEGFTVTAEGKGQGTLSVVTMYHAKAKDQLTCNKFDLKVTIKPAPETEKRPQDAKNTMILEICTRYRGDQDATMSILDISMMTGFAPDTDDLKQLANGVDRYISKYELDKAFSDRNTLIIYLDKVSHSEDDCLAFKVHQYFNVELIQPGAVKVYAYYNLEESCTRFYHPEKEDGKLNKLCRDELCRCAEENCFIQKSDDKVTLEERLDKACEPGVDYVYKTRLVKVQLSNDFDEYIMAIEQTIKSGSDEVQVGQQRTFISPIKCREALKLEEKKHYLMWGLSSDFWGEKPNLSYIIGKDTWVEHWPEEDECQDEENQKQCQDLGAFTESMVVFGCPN

IC50 [µM] | SMILES
3.1 | CC[C@H](C)[C@H](NC(C)=O)C(=O)N[C@H]1CSSC[C@@H](C(=O)N[C@H](C(N)=O)[C@@H](C)O)NC(=O)[C@H](CCCNC(=N)N)NC(=O)[C@H](Cc2cnc[nH]2)NC(=O)[C@H](Cc2c[nH]c3ccccc23)NC(=O)CNC(=O)[C@H](Cc2c[nH]c3ccccc23)NC(=O)[C@H](CC(=O)O)NC(=O)[C@H](CCC(N)=O)NC(=O)[C@H](Cc2c[nH]c3ccccc23)NC(=O)[C@H](C(C)C)NC1=O
10.5 | CC[C@H](C)[C@H](NC(C)=O)C(=O)N[C@H]1CSSC[C@@H](C(=O)N[C@H](C(N)=O)[C@@H](C)O)NC(=O)[C@H](CCCNC(=N)N)NC(=O)[C@H](Cc2cnc[nH]2)NC(=O)[C@H](Cc2cnc[nH]2)NC(=O)CNC(=O)[C@H](Cc2c[nH]c3ccccc23)NC(=O)[C@H](CC(=O)O)NC(=O)[C@H](CCC(N)=O)NC(=O)[C@H](Cc2cnc[nH]2)NC(=O)[C@H](C(C)C)NC1=O

SMILES | IC50 [µM]
CC[C@H](C)[C@H](NC(C)=O)C(=O)N[C@H]1CSSC[C@@H](C(=O)N[C@H](C(=O)O)[C@@H](C)O)NC(=O)[C@H](CCCN=C(N)N)NC(=O)[C@H](Cc2c[nH]cn2)NC(=O)[C@H](C)NC(=O)CNC(=O)[C@H](Cc2c[nH]c3ccccc23)NC(=O)[C@H](CC(=O)O)NC(=O)[C@H](CCC(N)=O)NC(=O)[C@H](CC2CNc3ccccc32)NC(=O)[C@H](C(C)C)NC1=O (stereo partly drawn) | 10.2
